Experimental data reported in patent publication US5328840A, “Method for preparing targeted carrier erythrocytes” (The Research Foundation of the State University of New York, priority 1991, dated 1994).
“Also recorded” adds a separate entry of the source.

Tests used:
activated platelets = assay: Platelet-thrombo-erythrocyte co-aggregation assay (microtiter); format: cell-based
Procedure: To assess the ability of thrombo-erythrocytes to enter into developing platelet aggregates, a microtiter assay was developed. Platelet-rich plasma (PRP) was prepared from blood anticoagulated with 0.01 volume 40% sodium citrate and adjusted to a platelet count of 3.5×10^8 /ml with platelet-poor plasma. Aliquots (50 or 100 μl) of the PRP were added to microtiter wells and then 5 or 10 μl of ADP (100 μM stock solution) was added to selected wells, followed by the addition of 5 or 10 μl of thrombo-erythrocytes (10% hematocrit in buffer A). The microtiter plate was then rotated at 270 rpm at 22° C. for variable periods of time between 0.5 and 20 min and the extent of platelet-thrombo-erythrocytecoaggregation was assessed visually on a scale from 0-4+ with the aid of a magnifying mirror. To assess the specificity of the reaction, in some experiments the PRP was preincubated with 10 mM EDTA, 300 μg/ml of the peptide RGDF, or 20 μg/ml of an antibody directed against both the GPIIb/IIIa receptor and the αv β3 vitronectin receptor that blocks fibrinogen binding to activated platelets (7E3) (Coller, 1985, J. Clin. Invest. 76:101-108; Coller et al., 1991, Blood 77:75-83). Blood smears were made from the samples in some experiments and stained with a standard Wright stain (Hemastain, Geometric Data, Wayne, Pa.).

gel-filtered platelets = assay: Co-aggregation of thrombo-erythrocytes with gel-filtered platelets in the aggregometer; format: cell-based
Procedure: To obtain more quantitative data on the co-aggregation of thrombo-erythrocytes with platelets, the assay was adapted to the aggregometer. PRP was prepared from whole blood anticoagulated with ACD-A (8.5:1.5) and gel-filtered over a column of Sepharose 2B (Pharmacia) using a modified Tyrodes buffer (140 mM NaCl, 3 mM KCl, 12 mM NaHCO3, 0.4 mM NaH2 PO4, 10 mM HEPES, 2 mM MgCl2, 0.2% bovine serum albumin, 5 mM glucose, pH 7.4). Samples consisted of 450 μl of gel-filtered platelets+20 μl of thrombo-erythrocytes (10% hematocrit) or control erythrocytes (i.e., erythrocytes incubated with peptide but no crosslinker). Maximal transmission was set with 450 μl of buffer+20 μl of control erythrocytes. Platelets were activated with ADP (4.3 μM final concentration) or epinephrine (10 μM).

erythrocytes = assay: Assessment of hemolysis (leucomalachite green); details: mean SD; n=6
Procedure: Hemolysis of erythrocytes during thrombo-erythrocyte preparation was assayed by the reaction of any free hemoglobin with leucomalachite green (Kodak; 0.1% p,p'-benzylidenebis-(N,N-dimethylaniline) in 3.3 M acetic acid). The resulting compound was detected by absorbance at 617 nm, a wavelength that is not interfered with by the mal-sac-HNSA dianion. Standards were prepared by lysing known amounts of erythrocytes in deionized water. The assay consisted of 10 μl of sample (the supernatant of the reaction mixture after centrifuging to remove intact erythrocytes), 1 ml of leucomalachite green, and 1 ml of 0.1% […]. After 10 min the absorbance of each sample was read at 617 nm.

[1] = test system: platelets adherent to collagen; assay: Binding of thrombo-erythrocytes to platelets adherent to collagen; format: cell-based; details: 1 hour, 22° C., 2 mM MgCl2
Procedure: The first stage of the assay, involving the adhesion of platelets to purified type 1 rat skin collagen, was performed as described previously, but without radiolabeling the platelets (Coller et al., 1989, Blood 74:182-192). In brief, a sample of gel-filtered platelets (100 μl; 5.5×10^8 /ml) in the presence of 2 mM MgCl2 was added to microtiter plate wells precoated with collagen and the platelets were allowed to adhere for 1 hour at 22° C. The wells were then emptied and washed×3 with buffer (0.15M NaCl, 0.01M Tris/HCl, 0.5% bovine serum albumin, 5 mM glucose, pH 7.4). Control erythrocytes or thrombo-erythrocytes (50 μl; 10% hematocrit) were then added to the wells in the same buffer, which was now supplemented with 2 mM MgCl2. After 60 min, the wells were emptied and washed×3 as above. The wells were then visually inspected at 400× magnification with the aid of a microscope with Nomarski optics. The effect of 20 μg/ml of an antibody to GPIIb/IIIa that blocks fibrinogen binding and platelet aggregation (10E5) (Coller et al., 1983, J. Clin. Invest. 72:325-338) and 400 μg/ml of the peptide RGDF on thrombo-erythrocyte adhesion to platelets was tested by adding these agents to the thrombo-erythrocytes immediately before the thrombo-erythrocytes were added to the microtiter wells.

7E3 binding to platelets = target: T1, 7E3 binding to platelets (Homo sapiens, UniProt P05106+P08514); assay: Effect of RGD peptides on initial rate of 125I-7E3 binding to platelets
T1 construct: endogenous in cells; host or cells: platelets in citrated platelet-rich plasma (PRP)
T1 sequence (P08514 32-887 limits assumed): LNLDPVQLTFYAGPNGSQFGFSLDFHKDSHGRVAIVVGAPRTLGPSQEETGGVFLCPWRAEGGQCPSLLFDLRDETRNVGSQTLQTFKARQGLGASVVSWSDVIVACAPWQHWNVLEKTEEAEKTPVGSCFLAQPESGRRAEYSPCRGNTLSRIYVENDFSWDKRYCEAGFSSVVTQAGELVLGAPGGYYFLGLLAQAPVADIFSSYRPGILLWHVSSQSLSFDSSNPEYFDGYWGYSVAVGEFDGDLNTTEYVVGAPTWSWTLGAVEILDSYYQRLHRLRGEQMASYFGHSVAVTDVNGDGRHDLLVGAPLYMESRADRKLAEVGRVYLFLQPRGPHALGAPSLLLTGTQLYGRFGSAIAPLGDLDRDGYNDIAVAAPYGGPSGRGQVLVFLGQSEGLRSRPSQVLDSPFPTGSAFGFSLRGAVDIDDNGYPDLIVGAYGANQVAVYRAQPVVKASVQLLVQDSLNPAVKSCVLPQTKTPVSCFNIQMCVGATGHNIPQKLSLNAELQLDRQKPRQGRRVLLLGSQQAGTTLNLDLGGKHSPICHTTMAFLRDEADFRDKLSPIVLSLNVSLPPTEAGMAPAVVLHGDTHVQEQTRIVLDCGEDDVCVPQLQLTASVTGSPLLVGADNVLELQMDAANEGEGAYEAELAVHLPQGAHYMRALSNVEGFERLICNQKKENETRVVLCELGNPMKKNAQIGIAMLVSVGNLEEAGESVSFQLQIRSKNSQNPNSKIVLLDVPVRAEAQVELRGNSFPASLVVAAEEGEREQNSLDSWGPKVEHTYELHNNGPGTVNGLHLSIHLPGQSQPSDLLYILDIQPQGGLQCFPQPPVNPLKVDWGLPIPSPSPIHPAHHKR
T1 sequence (P08514 891-1039 partner limits assumed): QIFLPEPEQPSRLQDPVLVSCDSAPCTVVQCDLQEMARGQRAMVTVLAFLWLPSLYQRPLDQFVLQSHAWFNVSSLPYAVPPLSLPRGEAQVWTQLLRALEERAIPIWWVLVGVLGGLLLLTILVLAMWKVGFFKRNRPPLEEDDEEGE
T1 sequence (P05106 27-788): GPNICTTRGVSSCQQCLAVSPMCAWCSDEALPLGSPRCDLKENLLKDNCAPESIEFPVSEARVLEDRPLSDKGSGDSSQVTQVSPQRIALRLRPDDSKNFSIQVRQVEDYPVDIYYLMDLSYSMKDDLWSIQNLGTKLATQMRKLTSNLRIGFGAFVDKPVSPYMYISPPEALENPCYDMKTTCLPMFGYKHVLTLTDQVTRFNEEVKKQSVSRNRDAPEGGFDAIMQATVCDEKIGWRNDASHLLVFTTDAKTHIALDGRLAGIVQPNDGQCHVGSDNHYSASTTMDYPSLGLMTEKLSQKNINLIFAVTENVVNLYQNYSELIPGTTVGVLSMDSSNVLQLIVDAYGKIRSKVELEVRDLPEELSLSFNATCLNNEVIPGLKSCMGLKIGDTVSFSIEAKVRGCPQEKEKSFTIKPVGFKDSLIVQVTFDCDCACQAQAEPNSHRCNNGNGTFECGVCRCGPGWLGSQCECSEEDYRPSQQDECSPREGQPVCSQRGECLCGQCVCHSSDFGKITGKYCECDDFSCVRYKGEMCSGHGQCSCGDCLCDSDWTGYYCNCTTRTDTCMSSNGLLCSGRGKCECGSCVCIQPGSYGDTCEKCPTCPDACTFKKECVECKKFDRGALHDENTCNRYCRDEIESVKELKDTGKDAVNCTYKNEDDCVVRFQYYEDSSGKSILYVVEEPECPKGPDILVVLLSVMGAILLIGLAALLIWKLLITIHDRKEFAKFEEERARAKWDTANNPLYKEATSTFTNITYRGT
Procedure: (§1) To assess the effect of RGD-containing peptides on the initial rate of binding of 7E3 and 10E5, studies were conducted with ^125 I-7E3 and ^125 I-10E5 essentially as described before (Coller, B.S., 1985, J. Clin. Invest. 76:101). The RGDS or LGGAKQAGDV(R)8 RGDV peptide was incubated at 22° C. with citrated PRP (~3×10^8 /ml) for 1 to 5 min at various concentrations and then non-saturating concentrations of the antibodies (1.5-2.5 μg/ml) were added for 1 to 2 min. The bound antibody was separated from the free by centrifugation of the PRP through 20% sucrose and both the platelet pellet and the supernatant were counted. Results were expressed as either an increase or decrease in antibody binding as compared to a buffer control.

[2] = target: T2, 10E5 binding to platelets (Homo sapiens, UniProt P05106+P08514); assay: Effect of RGD peptides on initial rate of 125I-10E5 binding to platelets; details: similar concentrations (up to 5 mM); one experiment
T2 construct: endogenous in cells; host or cells: platelets in citrated platelet-rich plasma (PRP)
T2 sequence (P08514 32-887 limits assumed): as the sequence (P08514 32-887 limits assumed) above
T2 sequence (P08514 891-1039 partner limits assumed): as the sequence (P08514 891-1039 partner limits assumed) above
T2 sequence (P05106 27-788): as the sequence (P05106 27-788) above
Procedure: as §1

| Substance | platelet-thrombo-erythrocyte co-aggregation (activated platelets; PRP with ADP, 120 min crosslinking, more than 20 experiments) | interaction with platelets (activated platelets; no agonist added) | interaction with platelets (aggregometer) (gel-filtered platelets; ADP-activated gel-filtered platelets, 4.3 μM ADP) | interaction with platelets (aggregometer) (gel-filtered platelets; unactivated gel-filtered platelets, stirring, 37° C.) | erythrocyte hemolysis in supernatant fluid after the thrombo-erythrocyte reaction (erythrocytes) | binding to platelets adherent to collagen [1] | increase in initial rate of 7E3 binding (7E3 binding to platelets; peptide 2.5 mM, n=1) | increase in initial rate of 7E3 binding (7E3 binding to platelets; peptide 5 mM, citrated PRP, n=2) | increase in initial rate of 7E3 binding (7E3 binding to platelets; peptide 0.5-1 mM, n=4) | decrease in rate of 10E5 binding [2] |
| --- | --- | --- | --- | --- | --- | --- | --- | --- | --- | --- |
| thrombo-erythrocytes: erythrocytes covalently conjugated through Mal-Sac-HNSA to the peptide acetyl-Cys-Gly-Gly-Arg-Gly-Asp-Phe-amide (Ac-CGGRGDF-NH2) (also: conjugated to erythrocytes via Mal-Sac-HNSA) | positive response | did not interact with platelets | interact with ADP-activated platelets | did not interact with unactivated platelets | 0.40±0.09% | formed a dense lawn on top of the platelet lawn; also recorded: bound extensively to the adherent platelets |  |  |  |  |
| RGDS |  |  |  |  |  |  | 63% | 66% | 21% | 5% |
